Reference: the supplement of paper PMC11208160

Assay: recombinant UMI read abundance after kanamycin selection (control-corrected) (log10(CPM+1)); higher = more efficient recombination; extreme values may be limits of the assay; sequences stand for … in AGTGCAGAGAAAATCGGCCAGTTTTCTCTGCCTGCAGTCCGCATGCCGTGGGACCCCTTGGGTTCTAACCTGTTGCCTAGATTTATGCAGCGGACTGCCTTTCTCCCAAAGTGATAAACCGG…AGGTTGGTTTCACT; site = the 11-nt donor
Method: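 Pooled E. coli donor-specificity screen for the IS621 bridge recombinase. Each library member carries a reprogrammed 11-nt donor and a full-length LE bridge RNA expressed in cis from the natural promoter, with a paired donor-binding loop (8-nt LDG + 4-nt RDG) and a target-binding loop fixed to T5. It is co-electroporated with a T5 target plasmid; recombinase is induced with 0.07 mM IPTG and recombinants are selected on kanamycin. UMIs are counted as CPM, averaged over two biological replicates and corrected by the unselected control. Molecule = full bridge RNA written as DNA, built from the T5 scaffold: LDG = donor specificity nt 1-8, RDG = reverse complement of nt 8-11.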
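Note: IS621 bridge recombinase in Escherichia coli cells against a fixed T5 target plasmid.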

First: ACAGTATCATGGACCGGTTTTCCCGGTAATCCGTATTTGCA (site ACAGCATCTTA)
Second: ACAGTATCATGGACCGGTTTTCCCGGTAATCCGTATTTGCA (site ACAGCATCTTG)
The “recombinant UMI read abundance (log10)” value of the first is lower: 0.00439 for the first, 1.64 for the second.

“ACAGTATCATGGACCGGTTTTCCCGGTAATCCGTATTTGCA (site ACAGCTTCTTG)” and “ACAGTATCATGGACCGGTTTTCCCGGTAATCCGTATTTGCA (site ACAGGACCTTG)” are the same in “recombinant UMI read abundance (log10)” value: 0 for the first, 0 for the second.

Compared with “ACAGTATCATGGACCGGTTTTCCCGGTAATCCGTATTTGCA (site ACAGGATCTGG)”, “ACAGTATCATGGACCGGTTTTCCCGGTAATCCGTATTTGCA (site ACAGGATCTTG)” is higher in “recombinant UMI read abundance (log10)” value: 0 for the first, 1.01 for the second.

First: ACAGTATCATGGACCGGTTTTCCCGGTAATCCGTATTTGCA (site ACAGGATCTTT)
Second: ACAGTATCATGGACCGGTTTTCCCGGTAATCCGTATTTGCA (site ACAGGGTCTTG)
The “recombinant UMI read abundance (log10)” value of the first is lower: 0 for the first, 1.17 for the second.

“ACAGTATCATGGACCGGTTTTCCCGGTAATCCGTATTTGCA (site ACAGTAACTAG)” and “ACAGTATCATGGACCGGTTTTCCCGGTAATCCGTATTTGCA (site ACAGTAACTTC)” are within 0.2 log units of each other in “recombinant UMI read abundance (log10)” value: 0 for the first, 0.0177 for the second.

Going from “ACAGTATCATGGACCGGTTTTCCCGGTAATCCGTATTTGCA (site ACAGTAACTTG)” to “ACAGTATCATGGACCGGTTTTCCCGGTAATCCGTATTTGCA (site ACAGTACCTGG)”, the “recombinant UMI read abundance (log10)” value falls from 1.55 to 0.

“ACAGTATCATGGACCGGTTTTCCCGGTAATCCGTATTTGCA (site ACAGTACCTTG)” and “ACAGTATCATGGACCGGTTTTCCCGGTAATCCGTATTTGCA (site ACAGTACCTTT)” are within 0.2 log units of each other in “recombinant UMI read abundance (log10)” value: 0 for the first, 0.00804 for the second.

“ACAGTATCATGGACCGGTTTTCCCGGTAATCCGTATTTGCA (site ACAGTAGCTCG)” and “ACAGTATCATGGACCGGTTTTCCCGGTAATCCGTATTTGCA (site ACAGTAGCTTA)” are within 0.2 log units of each other in “recombinant UMI read abundance (log10)” value: 0.00206 for the first, 0.00334 for the second.

“ACAGTATCATGGACCGGTTTTCCCGGTAATCCGTATTTGCA (site ACAGTAGCTTG)” and “ACAGTATCATGGACCGGTTTTCCCGGTAATCCGTATTTGCA (site ACAGTATCTAC)” are within 0.2 log units of each other in “recombinant UMI read abundance (log10)” value: 0.142 for the first, 0 for the second.

Going from “ACAGTATCATGGACCGGTTTTCCCGGTAATCCGTATTTGCA (site ACAGTATCTAG)” to “ACAGTATCATGGACCGGTTTTCCCGGTAATCCGTATTTGCA (site ACAGTATCTCA)”, the “recombinant UMI read abundance (log10)” value falls from 1.81 to 0.878.

Going from “ACAGTATCATGGACCGGTTTTCCCGGTAATCCGTATTTGCA (site ACAGTATCTCG)” to “ACAGTATCATGGACCGGTTTTCCCGGTAATCCGTATTTGCA (site ACAGTATCTGG)”, the “recombinant UMI read abundance (log10)” value rises from 1.77 to 2.13.

Going from “ACAGTATCATGGACCGGTTTTCCCGGTAATCCGTATTTGCA (site ACAGTATCTGT)” to “ACAGTATCATGGACCGGTTTTCCCGGTAATCCGTATTTGCA (site ACAGTATCTTA)”, the “recombinant UMI read abundance (log10)” value rises from 0.00931 to 2.23.

Going from “ACAGTATCATGGACCGGTTTTCCCGGTAATCCGTATTTGCA (site ACAGTATCTTC)” to “ACAGTATCATGGACCGGTTTTCCCGGTAATCCGTATTTGCA (site ACAGTATCTTG)”, the “recombinant UMI read abundance (log10)” value rises from 1.17 to 2.67.

“ACAGTATCATGGACCGGTTTTCCCGGTAATCCGTATTTGCA (site ACAGTATCTTT)” and “ACAGTATCATGGACCGGTTTTCCCGGTAATCCGTATTTGCA (site ACAGTCACTTG)” are within 0.2 log units of each other in “recombinant UMI read abundance (log10)” value: 2.17 for the first, 2.03 for the second.

“ACAGTATCATGGACCGGTTTTCCCGGTAATCCGTATTTGCA (site ACAGTCTCTAG)” and “ACAGTATCATGGACCGGTTTTCCCGGTAATCCGTATTTGCA (site ACAGTCTCTTC)” are within 0.2 log units of each other in “recombinant UMI read abundance (log10)” value: 0 for the first, 0.0179 for the second.

First: ACAGTATCATGGACCGGTTTTCCCGGTAATCCGTATTTGCA (site ACAGTCTCTTG)
Second: ACAGTATCATGGACCGGTTTTCCCGGTAATCCGTATTTGCA (site ACAGTGCCTTG)
The “recombinant UMI read abundance (log10)” value of the first is higher: 2.06 for the first, 0.121 for the second.
